From patent publication US20260125371A1, “METHOD FOR INHIBITING CLOSTRIDIOIDES DIFFICILE SPORE GERMINATION” (UNIVERSITY OF NOTRE DAME DU LAC, priority 2022, published 2026)
In brackets after ≈: the same amount, converted by molar mass. Entries after “also recorded” stand apart in the source; their conditions may differ. Where two headings read alike, the source gives them in different places.

Experiments:
THP-1 cells = assay: Lactate dehydrogenase (LDH) cytotoxicity assay; assay type: cell-based, human; details: for IC50: Homo sapiens
C. difficile ATCC 43255 [1] = assay: Determination of minimal-inhibitory concentrations (microdilution), C. difficile ATCC 43255; assay type: cell-based, Clostridioides difficile; details: for MIC C. difficile: Table 1; for MIC: Clostridioides difficile
S. aureus = assay: MIC against S. aureus strains; assay type: cell-based; details: S. aureus ATCC 29213, 24 h; for MIC: Staphylococcus aureus, ATCC29213, 24 h, read-out: MIC (μg/mL) 24 h
[2] = Solubility observed during characterisation; details: DMSO, room temperature
HepG2 cells = assay: XTT cytotoxicity assay; assay type: cell-based; details: Homo sapiens, HepG2, read-out: XTT IC50
[3] = tested on: Bifidobacterium longum HM-846; details: cited from earlier work
[4] = tested on: Bacteroides fragilis HM-709; details: cited from earlier work
C. difficile ATCC 43255 [5] = assay type: cell-based, Clostridioides difficile
E. aerogenes ATCC35029 = assay: MIC against E. aerogenes; assay type: cell-based; details: Klebsiella aerogenes, ATCC35029
[6] = tested on: Clostridioides difficile infection; details: CDI patients; cited from earlier work
[7] = tested on: Fusobacterium nucleatum HM-992; details: cited from earlier work
[8] = tested on: C. difficile ATCC 43255 vegetative cells; assay: Mode of action by scanning electron microscopy (SEM); details: 8× MIC for 24 h
C. difficile ATCC 43255 [9] = assay: Minimal-bactericidal concentration (MBC); assay type: cell-based, Clostridioides difficile
[10] = tested on: Lactobacillus gasseri HM-644; details: cited from earlier work
[11] = tested on: Lactobacillus reuteri HM-102; details: cited from earlier work
P. aeruginosa ATCC27853 = assay: MIC against P. aeruginosa; assay type: cell-based; details: Pseudomonas aeruginosa, ATCC27853
Veillonella sp. HM-49 = details: cited from earlier work
Gram-negative bacteria = assay type: cell-based
[12] = tested on: extended panel of Gram-positive bacteria; assay: MIC range over extended panel of Gram-positive bacteria; assay type: cell-based
K. pneumoniae ATCC700603 = assay: MIC against K. pneumoniae; assay type: cell-based; details: Klebsiella pneumoniae, ATCC700603
A. baumanii ATCC17961 = assay: MIC against A. baumanii; assay type: cell-based; details: Acinetobacter baumannii, ATCC17961
E. coli ATCC25922 = assay: MIC against E. coli; assay type: cell-based; details: Escherichia coli, ATCC25922
[13] = C. difficile ATCC 43255, 48-h incubation
[14] = ATCC43255, 24 h, C. difficile ATCC 43255, 24 h, read-out: MIC (μg/mL) 24 h
[15] = ATCC43255, Table 1, strain ATCC 43255, read-out: MIC C. difficile
[16] = THP-1, 24 h, read-out: LDH (IC50)

Row | SMILES | LDH (IC50) (THP-1 cells; THP-1 cells, 24 h) | MIC (μg/mL) 48 h (C. difficile ATCC 43255 [1]; [13]) | MIC (μg/mL) 24 h (C. difficile ATCC 43255 [1]; C. difficile ATCC 43255, 24 h) | MIC C. difficile (C. difficile ATCC 43255 [1]; strain ATCC 43255) | MIC (μg/mL) 24 h (S. aureus) | MIC (C. difficile ATCC 43255 [1]; [14]) | MIC (C. difficile ATCC 43255 [1]; [15]) | IC50 (THP-1 cells; [16]) | further results
1 | O=[N+]([O-])c1cc(-c2nc(-c3ccc(Oc4ccc(C(F)(F)F)cc4)cc3)no2)cnc1O [Compound 16] | 37 ± 11 mg/L | 2 µg/mL (≈ 4.5 µM) | 2 µg/mL (≈ 4.5 µM) | 2 mg/L (≈ 4.5 µM) | 8 µg/mL (≈ 18 µM) | – | – | – | –
2 | Cl.NCc1ccc(-c2nc(-c3ccc(Oc4ccc(C(F)(F)F)cc4)cc3)no2)cc1 [Compound 17, (4-(3-(4-(4-(Trifluoromethyl)phenoxy)phenyl)-1,2,4-oxadiazol-5-yl)phenyl) methanamine hydrochloride salt] | – | – | – | – | – | 4 µg/mL | 4 µg/mL | – | IC50 (THP-1 cells; THP-1 cells, 24 h, read-out: LDH (IC50)): 4.4 ± 0.7 mg/L; MIC (S. aureus): 2 to 4 µg/mL
3 | Cl.O=[N+]([O-])c1c[nH]c(-c2nc(-c3ccc(CN4CCCC4)cc3)no2)n1 [Compound 130] | – | – | – | – | – | > 128 µg/mL | – | – | solubility [2]: barely soluble in DMSO; MIC (μg/mL) 48 h (C. difficile ATCC 43255 [1]; C. difficile ATCC 43255, 48-h incubation, Hydrochloride): >128 µg/mL
4 | Oc1ccc(-c2nc(-c3ccc(Oc4ccc(C(F)(F)F)cc4)cc3)no2)cc1 [Compound 9] | 17 ± 1 mg/L | 2 µg/mL (≈ 5.02 µM) | 2 µg/mL (≈ 5.02 µM) | 2 mg/L (≈ 5.02 µM) | 1 µg/mL (≈ 2.51 µM) | – | – | – | –
5 | Oc1ccc(-c2nc(-c3ccc(OC4CCCC=C4Br)cc3)no2)cc1 (stereo not drawn) [Compound 99, 4-(3-(4-((2-Bromocyclohex-2-en-1-yl)oxy)phenyl)-1,2,4-oxadiazol-5-yl)phenol] | – | – | – | – | – | 2 µg/mL (≈ 4.84 µM) | 2 µg/mL (≈ 4.84 µM) | 8.4 ± 0.3 mg/L (≈ 20.3 µM) | MIC (C. difficile ATCC 43255 [1]; ATCC43255, 48 h, C. difficile ATCC 43255, 48-h incubation, read-out: MIC (μg/mL) 48 h): 2 µg/mL (≈ 4.84 µM); MIC (S. aureus): 4 µg/mL (≈ 9.68 µM)
6 | O=[N+]([O-])c1c[nH]nc1-c1nc(-c2ccc(Oc3ccc(C(F)(F)F)cc3)cc2)no1 [Compound 30] | 21 ± 5 mg/L | 4 µg/mL (≈ 9.59 µM) | 4 µg/mL (≈ 9.59 µM) | 4 mg/L (≈ 9.59 µM) | 2 µg/mL (≈ 4.79 µM) | – | – | – | –
7 | O=[N+]([O-])c1cnc(-c2nc(-c3ccc(OC4CCC4)cc3)no2)[nH]1 [Compound 131, 3-(4-Cyclobutoxyphenyl)-5-(5-nitro-1H-imidazol-2-yl)-1,2,4-oxadiazole] | – | – | – | – | – | 0.5 µg/mL (≈ 1.53 µM) | 0.25 µg/mL (≈ 0.764 µM) | > 128 mg/L | IC50 (THP-1 cells; THP-1, read-out: toxicity IC50 (LDH assay)): > 50 mg/L; IC50 (HepG2 cells): 41.9 ± 4.5 mg/L (≈ 128 µM)
8 | CN[C@H](CC(C)C)C(=O)N[C@H]1C(=O)N[C@@H](CC(N)=O)C(=O)N[C@H]2C(=O)N[C@H]3C(=O)N[C@H](C(=O)N[C@H](C(=O)O)c4cc(O)cc(O)c4-c4cc3ccc4O)[C@H](O)c3ccc(c(Cl)c3)Oc3cc2cc(c3O[C@@H]2O[C@H](CO)[C@@H](O)[C@H](O)[C@H]2O[C@H]2C[C@](C)(N)[C@H](O)[C@H](C)O2)Oc2ccc(cc2Cl)[C@H]1O [VAN, vancomycin] | – | – | – | – | – | – | – | – | MIC [3]: 0.25 mg/L (≈ 0.173 µM); MIC [4]: 16 mg/L (≈ 11 µM); increase in MIC on serial passage (C. difficile ATCC 43255 [5]): 16 fold; MIC (E. aerogenes ATCC35029): > 128 mg/L; recurrence of infection [6]: 24%; MIC [7]: 0.25 mg/L (≈ 0.173 µM); effect on vegetative cells by SEM [8]: damage the cell wall; also recorded: same effect; bactericidal or bacteriostatic (C. difficile ATCC 43255 [9]): bacteriostatic; MIC [10]: 1 mg/L (≈ 0.69 µM); MIC [11]: >32 mg/L; MIC (P. aeruginosa ATCC27853): > 128 mg/L; MIC (Veillonella sp. HM-49): >32 mg/L; activity against Gram-negative organisms (Gram-negative bacteria): no activity; activity against Gram-positive bacteria [12]: has activity; MIC (K. pneumoniae ATCC700603): > 128 mg/L; MIC (A. baumanii ATCC17961): > 128 mg/L; MIC (E. coli ATCC25922): > 128 mg/L
9 | O=[N+]([O-])c1c[nH]nc1-c1nc(-c2ccc3oc4ccccc4c3c2)no1 [Compound 118, 3-(Dibenzo[b,d]furan-2-yl)-5-(4-nitro-1H-pyrazol-3-yl)-1,2,4-oxadiazole] | – | – | – | – | – | 4 µg/mL (≈ 11.5 µM) | 4 µg/mL (≈ 11.5 µM) | 9.8 ± 3.3 mg/L (≈ 28.2 µM) | MIC (S. aureus): 2 µg/mL (≈ 5.76 µM)
10 | O=[N+]([O-])c1c[nH]nc1-c1nc(-c2ccc(OC(F)(F)F)cc2)no1 [Compound 115, 5-(4-Nitro-1H-pyrazol-3-yl)-3-(4-(trifluoromethoxy)phenyl)-1,2,4-oxadiazole] | – | – | – | – | – | 2 µg/mL (≈ 5.86 µM) | 4 µg/mL (≈ 11.7 µM) | 25 ± 4 mg/L (≈ 73.3 µM) | –
11 | Oc1c(F)cc(-c2nc(-c3ccc(Oc4ccc(C(F)(F)F)cc4)cc3)no2)cc1F [Compound 11] | 18 ± 2 mg/L | 4 µg/mL (≈ 9.21 µM) | 4 µg/mL (≈ 9.21 µM) | 4 mg/L (≈ 9.21 µM) | 2 µg/mL (≈ 4.6 µM) | – | – | – | –
12 | Oc1ccc(-c2nc(-c3ccc(Oc4ccc(C(F)(F)F)cc4)cc3)no2)cc1F [Compound 10] | 5.2 ± 0.02 mg/L | 4 µg/mL (≈ 9.61 µM) | 4 µg/mL (≈ 9.61 µM) | 4 mg/L (≈ 9.61 µM) | 2 µg/mL (≈ 4.8 µM) | – | – | – | –
